Experimental data published in patent US20240368163A1, “COMPOUNDS AND METHODS FOR MODULATING SPLICING” (REMIX THERAPEUTICS INC., priority 2021, published 2024).

Assays:
Assay type in all cases: cell-based, human
HTT [1] = test: Splicing RT-qPCR assay, HTT mRNA canonical junction (CJ) and alternative junction (AJ); settings: Homo sapiens; for AC50: increase in AJ mRNA
In short: (§1)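 A673 or K562 cells were treated 24 h at 37 °C with an 11-point 3-fold dilution series (top 10 uM final, DMSO ≤0.25%). Lysates underwent one-step RT-qPCR for canonical (CJ) and alternative (AJ) junctions; Ct normalized to GAPDH, GUSB or PPIA and DMSO control via 2^(−ΔΔCt), expressed as percentage response.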

MYB [2] = test: Splicing RT-qPCR assay, MYB mRNA canonical junction (CJ) and alternative junction (AJ); settings: Homo sapiens; for AC50: increase in AJ mRNA
In short: as §1

SMN2 = test: Splicing RT-qPCR panel, SMN2 canonical junction (CJ) mRNA; settings: Homo sapiens, RT-qPCR panel, canonical junction mRNA; compound concentration having 50% response in CJ decrease; read-out: SMN2 IC50 (decrease in CJ mRNA levels)
In short: as §1

Target C [3] = test: Splicing RT-qPCR panel, Target C canonical junction (CJ) mRNA; settings: Homo sapiens, RT-qPCR panel, canonical junction mRNA; compound concentration having 50% response in CJ decrease; read-out: Target C IC50 (decrease in CJ mRNA levels)
In short: as §1

MYB [4] = test: HiBiT protein abundance assay, MYB; settings: Homo sapiens, K562, 24 h, Table 13A, modified K562 cells
In short: (§2)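 K562 cells with endogenous HiBiT-tagged target were treated 24 h at 37 °C with compound (10-point 3-fold dilution, top 10 μM final, DMSO ≤0.25%). Lytic LgBiT luminescence was normalized to unmodified K562 (baseline) and DMSO-treated tagged cells; IC50 interpolated at 50% from four-parameter logistic fit.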

HTT [5] = test: HiBiT protein abundance assay, HTT; settings: Homo sapiens, K562, 24 h, Table 13A, modified K562 cells
In short: as §2

Target C [6] = test: HiBiT protein abundance assay, Target C; settings: Homo sapiens, K562, 24 h, Table 13A, modified K562 cells
In short: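 HiBiT knock-in K562-derived cells, 10000 cells/well, were treated 24 h at 37 °C with a 10-point 3-fold dilution series (top 10 μM final, DMSO ≤0.25%). Lytic HiBiT luminescence was normalized to unmodified K562 and DMSO controls; IC50 was interpolated at 50% from a four-parameter logistic fit.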

[7] = 24 h, decrease in CJ mRNA, A673 or K562 cells, 24 hours treatment, RT-qPCR, read-out: HTT CJ IC50
[8] = 24 h, A673 or K562 cells, 24 hours treatment, RT-qPCR
[9] = RT-qPCR panel, canonical junction mRNA, compound concentration having 50% response in CJ decrease, read-out: HTT IC50 (decrease in CJ mRNA levels)
[10] = 24 h, decrease in CJ mRNA, A673 or K562 cells, 24 hours treatment, RT-qPCR, read-out: MYB CJ IC50
[11] = RT-qPCR panel, canonical junction mRNA, compound concentration having 50% response in CJ decrease, read-out: MYB IC50 (decrease in CJ mRNA levels)

SMILES: c1nc2c(-c3cn[nH]c3)ccc(-c3cnc(N4CCNC(C5CC5)C4)nn3)c2s1 (stereo not shown) [Compound 414]
- IC50 (HTT [1]; [7]): 100 to 1000 nM
- AC50 (HTT [1]; [8]): 100 to 1000 nM
- IC50 (HTT [1]; [9]): 100 to 1000 nM
- IC50 (MYB [2]; [10]): 1000 to 10000 nM
- AC50 (MYB [2]; [8]): > 10000 nM
- IC50 (MYB [2]; [11]): 1000 to 10000 nM
- IC50 (SMN2): 1000 to 10000 nM
- IC50 (Target C [3]): 1000 to 10000 nM
- IC50 (MYB [4]): 1000 to 10000 nM
- IC50 (HTT [5]): 100 to 1000 nM
- IC50 (Target C [6]): 100 to 1000 nM

SMILES: c1nc2c(-c3cn[nH]c3)ccc(-c3cnc(N4CCC(NC5CC5)C4)nn3)c2s1 (stereo not shown) [Compound 416, N-cyclopropyl-1-[6-[4-(1H-pyrazol-4-yl)-1,3-benzothiazol-7-yl]-1,2,4-triazin-3-yl]py-rrolidin-3-amine]
- IC50 (HTT [1]; [7]): 1000 to 10000 nM
- AC50 (HTT [1]; [8]): 1000 to 10000 nM
- IC50 (HTT [1]; [9]): 1000 to 10000 nM
- IC50 (MYB [2]; [10]): 1000 to 10000 nM
- AC50 (MYB [2]; [8]): > 10000 nM
- IC50 (MYB [2]; [11]): 1000 to 10000 nM
- IC50 (SMN2): 1000 to 10000 nM
- IC50 (Target C [3]): > 10000 nM
- IC50 (MYB [4]): 1000 to 10000 nM
- IC50 (HTT [5]): 1000 to 10000 nM
- IC50 (Target C [6]): 1000 to 10000 nM

SMILES: c1nc2c(-c3cn[nH]c3)ccc(-c3ccc(N4CCNC(C5CC5)C4)nn3)c2s1 (stereo not shown) [Compound 417]
- IC50 (HTT [1]; [7]): 1000 to 10000 nM
- AC50 (HTT [1]; [8]): > 10000 nM
- IC50 (HTT [1]; [9]): 1000 to 10000 nM
- IC50 (MYB [2]; [10]): 1000 to 10000 nM
- AC50 (MYB [2]; [8]): 1000 to 10000 nM
- IC50 (MYB [2]; [11]): 1000 to 10000 nM
- IC50 (SMN2): 100 to 1000 nM
- IC50 (Target C [3]): > 10000 nM
- IC50 (MYB [4]): > 10000 nM
- IC50 (HTT [5]): 100 to 1000 nM
- IC50 (Target C [6]): 1000 to 10000 nM

SMILES: CN(c1ncc(-c2ccc(-c3cn[nH]c3)c3ncsc23)nn1)[C@@H]1C[C@H]2CC[C@@H](C1)N2 [Compound 420]
- AC50 (HTT [1]; [8]): < 100 nM
- IC50 (HTT [1]; [9]): < 100 nM
- IC50 (MYB [2]; [10]): 100 to 1000 nM
- AC50 (MYB [2]; [8]): 100 to 1000 nM
- IC50 (MYB [2]; [11]): 100 to 1000 nM
- IC50 (SMN2): 100 to 1000 nM
- IC50 (Target C [3]): 100 to 1000 nM
- IC50 (MYB [4]): 100 to 1000 nM
- IC50 (HTT [5]): < 100 nM
- IC50 (Target C [6]): < 100 nM

SMILES: CN(c1ncc(-c2ccc(-c3cn[nH]c3)c3ncsc23)nn1)C1C[C@H]2CCC[C@H](C1)N2 (stereo partly shown) [Compound 421]
- AC50 (HTT [1]; [8]): < 100 nM
- IC50 (HTT [1]; [9]): < 100 nM
- IC50 (MYB [2]; [10]): 100 to 1000 nM
- AC50 (MYB [2]; [8]): 100 to 1000 nM
- IC50 (MYB [2]; [11]): 100 to 1000 nM
- IC50 (SMN2): < 100 nM
- IC50 (Target C [3]): < 100 nM
- IC50 (MYB [4]): 100 to 1000 nM
- IC50 (HTT [5]): < 100 nM
- IC50 (Target C [6]): < 100 nM

SMILES: c1nc2c(-c3cn[nH]c3)ccc(-c3cnc(N[C@@H]4C[C@H]5CC[C@@H](C4)N5)nn3)c2s1 [Compound 422]
- AC50 (HTT [1]; [8]): 100 to 1000 nM
- IC50 (HTT [1]; [9]): < 100 nM
- IC50 (MYB [2]; [10]): 100 to 1000 nM
- AC50 (MYB [2]; [8]): 1000 to 10000 nM
- IC50 (MYB [2]; [11]): 100 to 1000 nM
- IC50 (SMN2): 100 to 1000 nM
- IC50 (Target C [3]): 100 to 1000 nM
- IC50 (MYB [4]): 100 to 1000 nM
- IC50 (HTT [5]): 100 to 1000 nM
- IC50 (Target C [6]): 100 to 1000 nM

SMILES: CN(c1ncc(-c2ccc(-c3cn[nH]c3)c3ncsc23)nn1)[C@H]1C[C@]2(C)CC[C@](C)(C1)N2 [Compound 424, (1S,5R)—N,1,5-trimethyl-N-[6-[4-(1H-pyrazol-4-yl)-1,3-benzothiazol-7-yl]-1,2,4-triazin-3-yl]-8-azabicyclo [3.2.1] octan-3-amine]
- AC50 (HTT [1]; [8]): < 100 nM
- IC50 (HTT [1]; [9]): < 100 nM
- IC50 (MYB [2]; [10]): 100 to 1000 nM
- AC50 (MYB [2]; [8]): 100 to 1000 nM
- IC50 (MYB [2]; [11]): 100 to 1000 nM
- IC50 (SMN2): 100 to 1000 nM
- IC50 (Target C [3]): < 100 nM
- IC50 (MYB [4]): 100 to 1000 nM
- IC50 (HTT [5]): < 100 nM
- IC50 (Target C [6]): < 100 nM

SMILES: CN(c1ncc(-c2ccc(-c3cn[nH]c3)c3ncsc23)nn1)[C@@H]1C[C@]2(C)CC[C@](C)(C1)N2 [Compound 425, (1S,5R)—N,1,5-trimethyl-N-[6-[4-(1H-pyrazol-4-yl)-1,3-benzothiazol-7-yl]-1,2,4-triazin-3-yl]-8-azabicyclo [3.2.1] octan-3-amine]
- IC50 (HTT [1]; [7]): 100 to 1000 nM
- AC50 (HTT [1]; [8]): 100 to 1000 nM
- IC50 (HTT [1]; [9]): 100 to 1000 nM
- IC50 (MYB [2]; [10]): 1000 to 10000 nM
- AC50 (MYB [2]; [8]): > 10000 nM
- IC50 (MYB [2]; [11]): 1000 to 10000 nM
- IC50 (SMN2): 1000 to 10000 nM
- IC50 (Target C [3]): 100 to 1000 nM
- IC50 (MYB [4]): 1000 to 10000 nM
- IC50 (HTT [5]): 100 to 1000 nM
- IC50 (Target C [6]): 100 to 1000 nM

SMILES: CN(c1ncc(-c2ccc(-c3cn[nH]c3)c3ncsc23)nn1)C1CC2CCC(C1)N2 (stereo not shown) [Compound 443]
- IC50 (HTT [1]; [9]): < 100 nM
- IC50 (MYB [2]; [11]): 1000 to 10000 nM
- IC50 (SMN2): 100 to 1000 nM
- IC50 (Target C [3]): 100 to 1000 nM
- IC50 (MYB [4]): 100 to 1000 nM
- IC50 (HTT [5]): < 100 nM
- IC50 (Target C [6]): < 100 nM
